According to patent US12503506B2, “Dual drug antibody-drug conjugates” (priority 2019, dated 2025):

Assays:
[1] = system: Namalwa wild type cells; assay: MTT cytotoxicity assay in Namalwa wild type cells; format: cell-based; settings: 72 h incubation, read-out: IC50 (cytotoxicity, cell viability by MTT)
Experimental: (§1) Namalwa 21 nM VCR (multidrug-resistant cells by exposure to vincristine (21 nM), and Namalwa wild type (ATCC CRL-1432) cells were cultured in ATCC-formulated RPMI-1640 medium with L-glutamine (2 mM), sodium bicarbonate (1.5 g L-1), glucose (4.5 g L^−1), HEPES (10 mM) and sodium pyruvate (1.0 mM). The media was supplemented with penicillin (100 U mL^−1) and streptomycin (100 μg mL^−1, Mediatech) and fetal bovine serum (FBS, 10%, BenchMark). Cells were maintained in a humid 5% CO2 atmosphere at 37° C. and subcultured every 2-3 days.
(§2) Cytotoxicity of PCTX and compounds 2, 2& 10, 15 and 17 was determined using the MTT assay. On the day of exposure, exponentially growing cells were plated at 25,000 cells/well in 160 μL in 96-well tissue culture plates (Nunc). Cells were then incubated with medium (control) or compounds (20 μL, 10× in cell culture medium) at the indicated final concentrations (0.1-1000 nM). At 68 h, MTT reagent (5 mg mL^−1 in PBS, 20 μL/well) was added to each well. The plate was further incubated at 37° C. At 72 h the plate was centrifuged at 1400 rpm for 10 min at 4° C. and supernatants were carefully removed. DMSO (100 μL/well) was added to dissolve the water-insoluble formazan salt. The absorbance was measured at 545 nm using a microplate reader (BMG Labtech). Data points were collected in triplicate and expressed as normalized values for untreated control cells (100%). […]

[2] = system: multidrug-resistant Namalwa cell line (MDR+ve); assay: MTT cytotoxicity assay in multidrug-resistant Namalwa cells; format: cell-based; settings: 72 h
Experimental: as §1, §2

CC(=O)O[C@H]1C(=O)[C@@]2(C)[C@H]([C@H](OC(=O)c3ccccc3)[C@]3(O)C[C@H](OC(=O)[C@H](O)[C@@H](NC(=O)c4ccccc4)c4ccccc4)C(C)=C1C3(C)C)[C@]1(OC(C)=O)CO[C@@H]1C[C@@H]2O [PCTX, Paclitaxel, reference compound]
IC50 [1]: 2 nM

CC(=O)O[C@H]1C(=O)[C@]2(C)[C@@H](O)CC3OC[C@@]3(OC(C)=O)[C@H]2[C@H](OC(=O)c2ccccc2)[C@]2(O)C[C@H](OC(=O)[C@H](OC(=O)CCC(=O)NCCOCCOCCNC(=O)OCC3C4CCC#CCCC43)[C@@H](NC(=O)c3ccccc3)c3ccccc3)C(C)=C1C2(C)C (stereo partly drawn) [Compound 2, (4S,4aS,6R,9S,11S,12S,12aR,12bS)-9-(((19R)-19-((S)-benzamido(phenyl)methyl)-1-(bicyclo[6.1.0]non-4-yn-9-yl)-3,14,17-trioxo-2,7,10,18-tetraoxa-4,13-diazaicosan-20-oyl)oxy)-12-(benzoyloxy)-4,11-dihydroxy-4a,8,13,13-tetramethyl-5-oxo-3,4,4a,5,6,9,10,11,12,12a-decahydro-1H-7,11-methanocyclodeca[3,4]benzo[1,2-b]oxete-6,12b(2aH)-diyl diacetate]
IC50 [1]: 26 nM
activity (cytotoxicity) in MDR+ve cell line [2]: no appreciable activity
